Measurements taken from ChEMBL document CHEMBL1152132 (2008).
Calls of active or inactive are those of the source. The rule behind the calls is not given here.

Legend:
[1] = Ratio of compound ED50 to paclitaxel ED50 for tubulin assembly
Endothelial cell = experiment: Binding affinity to Pgp in bovine brain microvessel endothelial cells assessed as increase in rhodamine uptake at 10 uM relative to control; type: cell-based; settings: Bos taurus
MCF7 [2] = experiment: Ratio of compound ED50 to paclitaxel ED50 for human MCF7 cells; type: functional
NCI/ADR-RES [3] = experiment: Ratio of compound ED50 to paclitaxel ED50 for human NCI/ADR-RES cells; type: functional
MCF7 [4] = experiment: Cytotoxicity against human MCF7 cells; type: functional; settings: read-out: ED50 (the source's name)
NCI/ADR-RES [5] = experiment: Cytotoxicity against human NCI/ADR-RES cells; type: functional; settings: read-out: ED50 (the source's name)

| Ratio ED50 [1] | SMILES | Activity (Endothelial cell) | Ratio ED50 (MCF7 [2]) | Ratio ED50 (NCI/ADR-RES [3]) | EC50 (MCF7 [4]) [nM] | EC50 (NCI/ADR-RES [5]) [nM] |
| --- | --- | --- | --- | --- | --- | --- |
| 1.8 | CNC(=O)CCCC(=O)O[C@H]1C(=O)[C@@]2(C)[C@H]([C@H](OC(=O)c3ccccc3)[C@]3(O)C[C@H](OC(=O)[C@H](O)[C@@H](NC(=O)c4ccccc4)c4ccccc4)C(C)=C1C3(C)C)[C@]1(OC(C)=O)CO[C@@H]1C[C@@H]2O | Active | – | – | – | – |
| 0.6 | CC(=O)O[C@H]1C(=O)[C@]2(C)[C@@H](OC(=O)CCCC(N)=O)C[C@H]3OC[C@@]3(OC(C)=O)[C@H]2[C@H](OC(=O)c2ccccc2)[C@]2(O)C[C@H](OC(=O)[C@H](O)[C@@H](NC(=O)c3ccccc3)c3ccccc3)C(C)=C1C2(C)C | Active | – | – | – | – |
| 1.1 | CC(=O)O[C@H]1C(=O)[C@]2(C)[C@@H](OC(=O)CCC(=O)N(C)C)C[C@H]3OC[C@@]3(OC(C)=O)[C@H]2[C@H](OC(=O)c2ccccc2)[C@]2(O)C[C@H](OC(=O)[C@H](O)[C@@H](NC(=O)c3ccccc3)c3ccccc3)C(C)=C1C2(C)C | Active | – | – | – | – |
| 0.8 | CNC(=O)CCCC(=O)O[C@H]1C[C@H]2OC[C@@]2(OC(C)=O)[C@H]2[C@H](OC(=O)c3ccccc3)[C@]3(O)C[C@H](OC(=O)[C@H](O)[C@@H](NC(=O)c4ccccc4)c4ccccc4)C(C)=C([C@@H](OC(C)=O)C(=O)[C@]12C)C3(C)C | Active | 3.7 | 3.2 | – | – |
| 0.6 | CC(=O)O[C@H]1C(=O)[C@]2(C)[C@@H](OC(=O)CCC(N)=O)C[C@H]3OC[C@@]3(OC(C)=O)[C@H]2[C@H](OC(=O)c2ccccc2)[C@]2(O)C[C@H](OC(=O)[C@H](O)[C@@H](NC(=O)c3ccccc3)c3ccccc3)C(C)=C1C2(C)C | Active | – | – | – | – |
| 3.8 | CC(=O)O[C@H]1C(=O)[C@]2(C)[C@@H](OC(=O)CCC(=O)O)C[C@H]3OC[C@@]3(OC(C)=O)[C@H]2[C@H](OC(=O)c2ccccc2)[C@]2(O)C[C@H](OC(=O)[C@H](O)[C@@H](NC(=O)c3ccccc3)c3ccccc3)C(C)=C1C2(C)C | – | – | – | – | – |
| 0.4 | CC(=O)O[C@@]12CO[C@@H]1C[C@H](O)[C@@]1(C)C(=O)[C@H](OC(=O)CCC(N)=O)C3=C(C)[C@@H](OC(=O)[C@H](O)[C@@H](NC(=O)c4ccccc4)c4ccccc4)C[C@@](O)([C@@H](OC(=O)c4ccccc4)[C@H]21)C3(C)C | Active | 10 | 6 | – | – |
| 0.8 | CNC(=O)CCC(=O)O[C@H]1C(=O)[C@@]2(C)[C@H]([C@H](OC(=O)c3ccccc3)[C@]3(O)C[C@H](OC(=O)[C@H](O)[C@@H](NC(=O)c4ccccc4)c4ccccc4)C(C)=C1C3(C)C)[C@]1(OC(C)=O)CO[C@@H]1C[C@@H]2O | Active | 7.9 | 6 | – | – |
| 1 | COC(=O)CCC(=O)O[C@H]1C(=O)[C@@]2(C)[C@H]([C@H](OC(=O)c3ccccc3)[C@]3(O)C[C@H](OC(=O)[C@H](O)[C@@H](NC(=O)c4ccccc4)c4ccccc4)C(C)=C1C3(C)C)[C@]1(OC(C)=O)CO[C@@H]1C[C@@H]2O | – | 2.5 | 0.4 | – | – |
| 1.8 | CC(=O)O[C@@]12CO[C@@H]1C[C@H](O)[C@@]1(C)C(=O)[C@H](OC(=O)CCCC(N)=O)C3=C(C)[C@@H](OC(=O)[C@H](O)[C@@H](NC(=O)c4ccccc4)c4ccccc4)C[C@@](O)([C@@H](OC(=O)c4ccccc4)[C@H]21)C3(C)C | Active | – | – | – | – |
| 1 | CC(=O)O[C@H]1C(=O)[C@]2(C)[C@@H](OC(=O)CCCC(=O)O)C[C@H]3OC[C@@]3(OC(C)=O)[C@H]2[C@H](OC(=O)c2ccccc2)[C@]2(O)C[C@H](OC(=O)[C@H](O)[C@@H](NC(=O)c3ccccc3)c3ccccc3)C(C)=C1C2(C)C | – | – | – | – | – |
| 0.8 | CNC(=O)CCC(=O)O[C@H]1C[C@H]2OC[C@@]2(OC(C)=O)[C@H]2[C@H](OC(=O)c3ccccc3)[C@]3(O)C[C@H](OC(=O)[C@H](O)[C@@H](NC(=O)c4ccccc4)c4ccccc4)C(C)=C([C@@H](OC(C)=O)C(=O)[C@]12C)C3(C)C | Active | – | – | – | – |
| 0.7 | CC(=O)O[C@H]1C(=O)[C@]2(C)[C@@H](OC(=O)CCCC(=O)N(C)C)C[C@H]3OC[C@@]3(OC(C)=O)[C@H]2[C@H](OC(=O)c2ccccc2)[C@]2(O)C[C@H](OC(=O)[C@H](O)[C@@H](NC(=O)c3ccccc3)c3ccccc3)C(C)=C1C2(C)C | Active | – | – | – | – |
| 2.2 | CC(=O)O[C@@]12CO[C@@H]1C[C@H](O)[C@@]1(C)C(=O)[C@H](OC(=O)CCCC(=O)N(C)C)C3=C(C)[C@@H](OC(=O)[C@H](O)[C@@H](NC(=O)c4ccccc4)c4ccccc4)C[C@@](O)([C@@H](OC(=O)c4ccccc4)[C@H]21)C3(C)C | Active | – | – | – | – |
| 1.7 | CC(=O)O[C@@]12CO[C@@H]1C[C@H](O)[C@@]1(C)C(=O)[C@H](OC(=O)CCC(=O)O)C3=C(C)[C@@H](OC(=O)[C@H](O)[C@@H](NC(=O)c4ccccc4)c4ccccc4)C[C@@](O)([C@@H](OC(=O)c4ccccc4)[C@H]21)C3(C)C | – | – | – | – | – |
| 1.6 | CC(=O)O[C@@]12CO[C@@H]1C[C@H](O)[C@@]1(C)C(=O)[C@H](OC(=O)CCC(=O)N(C)C)C3=C(C)[C@@H](OC(=O)[C@H](O)[C@@H](NC(=O)c4ccccc4)c4ccccc4)C[C@@](O)([C@@H](OC(=O)c4ccccc4)[C@H]21)C3(C)C | Active | 2.1 | 2.7 | – | – |
| – | CC(=O)O[C@H]1C(=O)[C@@]2(C)[C@H]([C@H](OC(=O)c3ccccc3)[C@]3(O)C[C@H](OC(=O)[C@H](O)[C@@H](NC(=O)c4ccccc4)c4ccccc4)C(C)=C1C3(C)C)[C@]1(OC(C)=O)CO[C@@H]1C[C@@H]2O [PACLITAXEL] | – | – | – | 3.2 | 1500 |
| 1.2 | COC(=O)CCC(=O)O[C@H]1C[C@H]2OC[C@@]2(OC(C)=O)[C@H]2[C@H](OC(=O)c3ccccc3)[C@]3(O)C[C@H](OC(=O)[C@H](O)[C@@H](NC(=O)c4ccccc4)c4ccccc4)C(C)=C([C@@H](OC(C)=O)C(=O)[C@]12C)C3(C)C | Active | – | – | – | – |

| SMILES | Ratio ED50 [1] | Activity (Endothelial cell) | Ratio ED50 (MCF7 [2]) | Ratio ED50 (NCI/ADR-RES [3]) | EC50 (MCF7 [4]) [nM] | EC50 (NCI/ADR-RES [5]) [nM] |
| --- | --- | --- | --- | --- | --- | --- |
| CC(=O)O[C@@]12CO[C@@H]1C[C@H](O)[C@@]1(C)C(=O)[C@H](OC(=O)CCCC(=O)O)C3=C(C)[C@@H](OC(=O)[C@H](O)[C@@H](NC(=O)c4ccccc4)c4ccccc4)C[C@@](O)([C@@H](OC(=O)c4ccccc4)[C@H]21)C3(C)C | 1.8 | – | – | – | – | – |
